Assay [1] deals with T1, purified human BChE (Homo sapiens, UniProt P06276). The note with it: earlier determined; cited from earlier work.
In assay [2] the target is T1, purified human BChE. The experiment in a line: Reversible inhibition of BChE, Ellman method, enzyme-inhibitor dissociation constants. It counts as biochemical. On the procedure:
(§1) As a source of BChE, a purified human BChE, and as AChE, a recombinant human AChE was used, both enzymes kindly provided by Dr. F. Nachon (Département de Toxicologie, Armed Forces Biomedical Research Institute, France). The concentrated stocks of enzymes (BChE: 5.6 µM; AChE: 0.20 µM) were diluted in a phosphate sodium buffer 0.1 M (pH 7.4) containing 0.1% BSA before starting the experiments.
(§2) Enzyme activities were measured spectrophotometrically by the Ellman method at […] using 0.30 mM DTNB as thiol reagent, ATCh as substrate and water in 0.1 M phosphate buffer, pH 7.4. For the inhibition measurements, the reaction mixture contained tested compounds instead of water. […] Measurements were done at 25 °C on a Tecan Infinite M200Pro plate reader (Austria). A detailed description of measurement protocol was described previously.
(§3) The reversible inhibition of BChE and AChE by tested compounds was measured by determining the decrease of enzyme activity towards ATCh in their presence. The activities of the enzymes were measured at different substrate concentrations ([S]; 0.050–0.50 mM) in the absence (v0) and presence (vi) of the given tested compounds concentration ([I]; 0.050–200 µM, depending on the compound) selected to inhibit the enzymes for 20–80%. At least three concentrations of inhibitors for each substrate concentration were used in at least three experiments. The apparent dissociation inhibition constant (Ki,app) was calculated applying the Hunter-Downs equation and linear regression analysis (1):(1) Ki,app=vi/v0−vi⋅I=KI+KI/KS⋅S where y-intercept determines the enzyme-inhibitor dissociation constants (K(I)), while x-intercept determines the enzyme-substrate dissociation constant, K(S). The determination of kinetic constants was carried out using the GraphPadPrism 6.0 program (GraphPad Software, San Diego, CA, USA).
For orientation: DTNB colorimetry detects thiols as they appear.

For assay [3], the target named is recombinant human AChE (Homo sapiens, UniProt P22303). As to the kind of experiment: Reversible inhibition of AChE, Ellman method, enzyme-inhibitor dissociation constants. It counts as biochemical. The note with it: ± standard error; ATCh substrate, 25 °C, pH 7.4. On the procedure:
as §1, §2, §3

T1 sequence (P06276 29-602): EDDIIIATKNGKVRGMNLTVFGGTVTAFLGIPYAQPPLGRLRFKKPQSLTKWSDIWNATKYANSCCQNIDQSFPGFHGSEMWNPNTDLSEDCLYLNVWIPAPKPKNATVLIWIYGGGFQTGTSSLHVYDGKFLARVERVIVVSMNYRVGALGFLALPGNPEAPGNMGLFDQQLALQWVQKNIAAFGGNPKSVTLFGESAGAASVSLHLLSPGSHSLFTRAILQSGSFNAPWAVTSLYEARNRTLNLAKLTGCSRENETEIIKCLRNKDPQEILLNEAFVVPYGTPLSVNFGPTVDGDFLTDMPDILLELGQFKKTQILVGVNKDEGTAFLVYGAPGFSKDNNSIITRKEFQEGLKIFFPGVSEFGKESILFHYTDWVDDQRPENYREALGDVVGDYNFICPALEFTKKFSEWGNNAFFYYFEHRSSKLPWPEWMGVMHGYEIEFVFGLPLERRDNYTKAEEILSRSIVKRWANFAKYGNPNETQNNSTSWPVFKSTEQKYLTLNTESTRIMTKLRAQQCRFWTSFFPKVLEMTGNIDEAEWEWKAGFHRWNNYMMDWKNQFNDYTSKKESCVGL
recombinant human AChE, sequence (P22303 32-614): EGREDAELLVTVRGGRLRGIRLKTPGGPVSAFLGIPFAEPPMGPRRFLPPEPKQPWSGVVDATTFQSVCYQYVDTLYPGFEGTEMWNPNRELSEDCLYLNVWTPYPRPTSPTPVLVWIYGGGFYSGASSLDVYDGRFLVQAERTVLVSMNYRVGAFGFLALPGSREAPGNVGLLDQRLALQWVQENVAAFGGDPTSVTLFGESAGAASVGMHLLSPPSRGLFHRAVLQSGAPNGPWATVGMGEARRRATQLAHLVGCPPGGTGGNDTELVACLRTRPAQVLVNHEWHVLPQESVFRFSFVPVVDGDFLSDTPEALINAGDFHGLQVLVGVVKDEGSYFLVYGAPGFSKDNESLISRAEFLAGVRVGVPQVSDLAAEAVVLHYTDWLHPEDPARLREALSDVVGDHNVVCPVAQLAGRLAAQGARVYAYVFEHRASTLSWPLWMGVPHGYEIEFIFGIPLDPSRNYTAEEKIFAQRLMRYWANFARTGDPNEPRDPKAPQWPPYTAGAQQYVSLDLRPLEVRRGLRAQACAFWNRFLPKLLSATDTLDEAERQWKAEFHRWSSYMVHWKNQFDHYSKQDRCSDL

For `C=CC1C[N+]2(Cc3ccc(Br)cc3)CCC1CC2C(O)c1ccnc2ccccc12` (stereo not shown) [N-para-bromobenzyl CD derivative], the “selectivity to BChE over AChE (times)” value in assay [1] is reported as 510.

Usually Ki stands for the dissociation constant of the complex between target and ligand, obtained from inhibition or displacement. Turning to `C=CC1C[N+]2(Cc3cccc(C(F)(F)F)c3)CCC1C[C@H]2[C@H](O)c1ccnc2ccccc12` (stereo partly shown) [CD 3CF3], the “SI, selective index Ki(AChE)/Ki(BChE)” value in assay [2] (times higher preference for BChE over AChE) worked out at 14. Further, the Ki in assay [2] (± standard error, ATCh substrate, 25 °C, pH 7.4) was determined as 2.4 ± 0.1 µM; in assay [3], 34 ± 1 µM.
